# Data taken from US20100189766A1, “SUBSTANCE DELIVERING PUNCTUM IMPLANTS AND METHODS” (QLT PLUG DELIVERY, INC., priority 2008, published 2010).
# Assay: Diffusion or passage of latanoprost from the substance insert through the wall of the punctum plug
# Assay type: physicochemical
# Excerpt: In applications where it is desired to deliver the therapeutic or diagnostic substance to or through the cornea or the eye it is desirable to cause the substance to become dissolved in the tear film TF which covers the cornea of the eye, while deterring or minimizing untoward loss of substance through other routes, such as through direct absorption into tissues surrounding the punctum and/or canaliculus LC in which the device is implanted (referred to generally herein as “pericanalicular tissue absorption”) or by drainage through the naso-lacrimal system into the nose. One way to limit or deter such loss of substance is to render all or part of the punctum plug 12, 12a impervious to the substance so that the substance cannot diffuse or pass through the wall of the punctum plug 12, 12a. This may be particularly important in embodiments where the punctum plug 12, 12a is formed of silicone or other material through which the substance can pass. […] The substance insert receiving portion 20b may have the same configuration as either of those substance insert receiving portions 20, 20a described above. However, in this embodiment, a coating 60 has been applied to the outer surface of the side wall of the substance insert receiving portion 20b. Such coating may also be applied to other portions of the punctum plug 12b or to the entire punctum plug 12b. […]
smiles,measurement,setting,value
CC(C)OC(=O)CCC/C=C\C[C@@H]1[C@@H](CC[C@@H](O)CCc2ccccc2)[C@H](O)C[C@@H]1O [latanoprost],diffusion or passage through the wall of the punctum plug,"punctum plug formed of silicone, no coating, substance insert contains latanoprost",some of the latanoprost will diffuse or pass through the wall of the punctum plug
same,loss by diffusion or passage through the punctum plug,substance-impervious coating 60 applied to outer surface of the substance insert receiving portion and/or other portions of the punctum plug,substantially prevented
